This is an account of results in patent publication US20260151389A1, “Use of Tetramethylpyrazine Nitrone Derivatives In The Treatment of Ischemic Stroke” (GUANGZHOU MAGPIE PHARMACEUTICALS CO., L.T.D., priority 2021, published 2026).

The subject of this data set is patients with acute ischemic stroke. The data set is described as follows: multicenter, randomized, double-blind, parallel clinical trial in acute ischemic stroke. Particulars: for increase in percentage of patients with mRS 0-1 compared to the saline group: non-thrombolytic group, TBN 1400 mg iv twice a day for 7 days. In kind it is in vivo, human. From the text: The present invention adopts a multicenter, randomized, double-blind, parallel trial clinical research design. The patients with acute ischemic stroke included in the clinical trial-center as subjects (all signed informed consent forms) were divided into non-thrombolytic group and thrombolytic group. The non-thrombolytic group consists of the saline group and the TBN group. The thrombolytic group consists of the t-PA group and the combination group of TBN+t-PA.
Subjects of the tests: Patients diagnosed with acute ischemic stroke were selected by clinical trial centers based on the diagnostic criteria of “Chinese Guidelines for the Diagnosis and Treatment of Acute Ischemic Stroke (2018)”.
Administration method: TBN (1400 mg) is dissolved in a sodium chloride injection bag (specification: 100 mL) and administered intravenously for 30 minutes. Dose of t-PA: 0.9 mg/Kg/dose; usage: added to physiological saline, 10% of the dose is administered via injected intravenous injection immediately within 1-2 minutes, and the remaining 90% is administered via intravenous drop infusion within 60 minutes. t-PA is administered only once on the first day of acute ischemic stroke. The medication schedule of TBN: D1-D7 administered twice a day, with an interval of 12 hours, for 7 consecutive days.

In the case of `Cc1nc(C)c(/C=[N+](\[O-])C(C)(C)C)nc1C` [TBN, cis-2-methyl-N-[(3,5,6-trimethylpyrazin-2-)methylene]2-propamine oxide], the safety and tolerability result (clinical trial patients) is “good safety and tolerability”. In addition, the “increase in percentage of patients with mRS 0-1 compared to the saline group” value is, setting by setting: (30th day) 6.6 percentage points; (90th day) 3.3 percentage points.
